# Measured values reported in ChEMBL document CHEMBL3885861, “Open TG-GATES”.
# Species: Rattus norvegicus
# Experiment: Open TG-GATES - Regimen: Daily Repeat
# Assay type: toxicity, organism-based, Sprague-Dawley
# Parameters: regimen Daily Repeat, gender Male, age 6 weeks
# Settings: in vivo, po, 0 mg/kg, route gavage, dose level Control; for APTT / Bas / Eos / Fbg / Hb / Ht / Lym / MCH / MCHC / MCV / Mono / Neu / PT / Plat / RBC / Ret / WBC: tissue Blood
# [1] = 72 h, tissue Kidney, time 3 day
# [2] = 72 h, tissue Plasma, time 3 day
smiles,measurement,setting,value
CC(C)C(=O)Nc1ccc([N+](=O)[O-])c(C(F)(F)F)c1 [FLUTAMIDE],TERMINAL_BW,"72 h, time 3 day",224.3 g
same,APTT,"72 h, time 3 day",19 s
same,Bas,"72 h, time 3 day",0%
same,Eos,"72 h, time 3 day",1%
same,Fbg,"72 h, time 3 day",219.2 mg/dL
same,Hb,"72 h, time 3 day",13.9 g/dL
same,Ht,"72 h, time 3 day",41.8%
same,Lym,"72 h, time 3 day",79%
same,MCH,"72 h, time 3 day",21.5 pg
same,MCHC,"72 h, time 3 day",33.3%
same,MCV,"72 h, time 3 day",64.6 fL
same,Mono,"72 h, time 3 day",3%
same,Neu,"72 h, time 3 day",16%
same,PT,"72 h, time 3 day",12.4 s
same,Plat,"72 h, time 3 day",122.4 x10_4/uL
same,RBC,"72 h, time 3 day",648 x10_4/ul
same,Ret,"72 h, time 3 day",5.4%
same,WBC,"72 h, time 3 day",82.7 x10_2/uL
same,KIDNEY_L,[1],1 g
same,KIDNEY_R,[1],1 g
same,KIDNEY_TOTAL,[1],2 g
same,LIVER,"72 h, tissue Liver, time 3 day",10.4 g
same,A/G,[2],1.5
same,ALP,[2],1016 IU/L
same,ALT,[2],41.6 IU/L
same,AST,[2],72.8 IU/L
same,BUN,[2],13.6 mg/dL
same,CRE,[2],0.4 mg/dL
same,Ca,[2],10.5 mg/dL
same,Cl,[2],103.8 meq/L
same,DBIL,[2],0.09 mg/dL
same,GLC,[2],220.2 mg/dL
same,IP,[2],7.1 mg/dL
same,K,[2],4.1 meq/L
same,LDH,[2],204.4 IU/L
same,Na,[2],139.8 meq/L
same,PL,[2],139 mg/dL
same,RALB,[2],3.3 g/dL
same,TBIL,[2],0.1 mg/dL
same,TC,[2],76.2 mg/dL
same,TG,[2],71.8 mg/dL
same,TP,[2],5.5 g/dL
same,gamma-GTP,[2],0.8 IU/L
same,TERMINAL_BW,"[…], time 7 day",253 g
same,TERMINAL_BW,"[…], time 14 day",303.3 g
same,TERMINAL_BW,"[…], time 28 day",371.7 g
same,APTT,"[…], time 7 day",19.5 s
same,Bas,"[…], time 7 day",0%
same,Eos,"[…], time 7 day",1%
same,Fbg,"[…], time 7 day",230.6 mg/dL
same,Hb,"[…], time 7 day",13.8 g/dL
same,Ht,"[…], time 7 day",40.6%
same,Lym,"[…], time 7 day",81.6%
same,MCH,"[…], time 7 day",21.1 pg
same,MCHC,"[…], time 7 day",33.9%
same,MCV,"[…], time 7 day",62.3 fL
same,Mono,"[…], time 7 day",2.4%
same,Neu,"[…], time 7 day",14.6%
same,PT,"[…], time 7 day",12.2 s
same,Plat,"[…], time 7 day",133.9 x10_4/uL
same,RBC,"[…], time 7 day",652.6 x10_4/ul
same,Ret,"[…], time 7 day",4.9%
same,WBC,"[…], time 7 day",141.3 x10_2/uL
same,APTT,"[…], time 14 day",20.7 s
same,Bas,"[…], time 14 day",0%
same,Eos,"[…], time 14 day",0.8%
same,Fbg,"[…], time 14 day",227 mg/dL
same,Hb,"[…], time 14 day",14.4 g/dL
same,Ht,"[…], time 14 day",42.3%
same,Lym,"[…], time 14 day",80.8%
same,MCH,"[…], time 14 day",20.8 pg
same,MCHC,"[…], time 14 day",34.1%
same,MCV,"[…], time 14 day",60.9 fL
same,Mono,"[…], time 14 day",2.4%
same,Neu,"[…], time 14 day",15.2%
same,PT,"[…], time 14 day",12.2 s
same,Plat,"[…], time 14 day",128 x10_4/uL
same,RBC,"[…], time 14 day",695 x10_4/ul
same,Ret,"[…], time 14 day",4.3%
same,WBC,"[…], time 14 day",110.8 x10_2/uL
same,APTT,"[…], time 28 day",19.6 s
same,Bas,"[…], time 28 day",0%
same,Eos,"[…], time 28 day",0.8%
same,Fbg,"[…], time 28 day",229.6 mg/dL
same,Hb,"[…], time 28 day",15.2 g/dL
same,Ht,"[…], time 28 day",43.5%
